{"source": "patent US7135326B2", "about": "“UDP-glucosyltransferases” (E. I. du Pont de Nemours and Company, priority 2002, dated 2006)", "key": {"[1]": {"tested_on": "Arabidopsis thaliana glucosyltransferase UGT84A3 (GT 4, SEQ ID NO:12)", "conditions": "20° C., pH 6; calculated from Vmax of Lim et al. 2001; cited from earlier work"}, "[2]": {"target": "T1, Grape (Vitis sp.) UDP-glucosyltransferase (Grape GT), wild type, SEQ ID NO:18 (Vitis vinifera, UniProt F6H660)", "T1 construct": "cell-free extract and purified recombinant protein", "T1 sequence (F6H660 1-478)": "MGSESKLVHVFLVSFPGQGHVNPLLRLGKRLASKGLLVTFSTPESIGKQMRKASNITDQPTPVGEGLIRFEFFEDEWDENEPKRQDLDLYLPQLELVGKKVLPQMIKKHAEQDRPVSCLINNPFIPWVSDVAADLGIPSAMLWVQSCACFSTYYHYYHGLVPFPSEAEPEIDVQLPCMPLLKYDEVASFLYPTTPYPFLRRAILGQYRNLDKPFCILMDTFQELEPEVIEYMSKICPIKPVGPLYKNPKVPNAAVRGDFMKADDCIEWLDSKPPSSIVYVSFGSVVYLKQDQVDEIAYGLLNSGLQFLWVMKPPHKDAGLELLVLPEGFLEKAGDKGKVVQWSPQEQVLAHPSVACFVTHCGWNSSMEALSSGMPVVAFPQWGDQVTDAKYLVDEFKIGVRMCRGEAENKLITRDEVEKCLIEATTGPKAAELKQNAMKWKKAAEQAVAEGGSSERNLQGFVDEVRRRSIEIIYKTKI", "assay": "Substrate inhibition of Grape GT in cell-free extract (initial rates, Table 2)", "type": "biochemical", "conditions": "10 mM pHBA; 25° C., pH 7.3, 10 mM UDP-glucose; data of Table 2", "method": "For protein production, the resulting recombinant strains were grown at 22° C. in 50 mL of LB media that contained kanamycin (50 μg/mL). At an A600 nm of ˜0.6, isopropyl-1-thio-β-D-galactopyranoside was added to a final concentration of 0.2 mM. Following a 22-h induction period at the same temperature, the cells were harvested by centrifugation and stored at −80° C. for subsequent manipulation as described below.\nThe frozen cell pellets were resuspended in 1.0 mL of a solution containing 100 mM Tris-HCl (pH 7.7), 5 mM MgSO4, 1 mM dithiothreitol, 0.03 mg/mL DNAse I, 0.5 mM phenylmethanesulfonyl fluoride, and passed once through a French pressure cell at 20,000 psi. […] Protein concentrations were determined by the Bradford Method using bovine serum albumin as a standard.\nThe second assay is based on the increase in absorbance at 368 nm that accompanies the formation of the glucose ester of sinapic acid. The experimental conditions were the same as those described above, but the test substrate was sinapic acid and product formation was calculated using an extinction coefficient of 5,570 M^−1 that was obtained with the authentic chemically synthesized compound under identical conditions. […]"}, "[3]": {"target": "T1, Grape (Vitis sp.) UDP-glucosyltransferase (Grape GT), wild type, SEQ ID NO:18", "assay": "Kinetic analysis of purified recombinant Grape GT (spectrophotometric assay at 304 nm)", "type": "biochemical", "conditions": "saturated with pHBA; 25° C., pH 7.3, 10 mM UDP-glucose", "method": "Turnover number for the present enzyme is determined according to principles well known in the art. […] Using the protein concentration as determined in μmols in the assay, one can determine how many μmols product are formed using 1.0 μmols enzyme in a fixed time period such as a second (i.e., how many times catalytic turnover occurred).\nInitial rates of product formation were measured at 25° C. over a wide range of substrate concentrations using the spectrophotometric assay (see Example 4)."}, "[4]": {"tested_on": "Arabidopsis thaliana glucosyltransferase UGT84A1 (84A1, GT 3, SEQ ID NO:8)", "conditions": "20° C.; Lim et al. 2002; cited from earlier work"}, "[5]": {"tested_on": "Arabidopsis thaliana UDP-glucosyltransferase 75B1", "conditions": "20° C.; Lim et al. 2002; cited from earlier work"}, "[6]": {"tested_on": "Arabidopsis thaliana glucosyltransferase UGT84A2", "conditions": "20° C., pH 6; calculated from Vmax of Lim et al. 2001; cited from earlier work"}, "[7]": {"assay": "Acid and base hydrolysis of pHBA glucose conjugates, HPLC", "type": "physicochemical", "conditions": "48 h at 60° C. with NaOH or HCL, 0.19 mM", "method": "The initial concentration of both compounds was 0.19 mM and the total reaction volume was […]. Reactions were conducted in tightly sealed polypropylene tubes to prevent evaporative loss. […] Prior to HPLC analysis, the acid hydrolyzed samples were diluted with an equal volume of NaOH that contained a 0.2 mM excess of NaOH relative to the original concentration of HCL. The base hydrolyzed samples were analyzed directly. Chemically synthesized pHBA phenolic and ester glucoside standards and free pHBA were used to calibrate the HPLC runs for retention times, and extinction coefficients for all three compounds were accurately determined under the conditions employed. Peak areas were integrated using the software package provided with the Hewlett Packard Chemstation, and values obtained with known amounts of the chemical standards were used to quantitate compounds of interest in the acid and base hydrolyzed samples."}}, "data": [{"smiles": "O=C(O)/C=C/c1ccccc1", "note": "[cinnamic acid]", "values": [{"measurement": "turnover number with cinnamic acid", "setting": "[1]", "result": "~0.9", "unit": "s⁻¹"}]}, {"smiles": "O=C(O)c1ccc(O)cc1", "note": "[pHBA, p-Hydroxybenzoic acid]", "values": [{"measurement": "substrate inhibition (in words)", "setting": "[2]", "result": "little, if any, substrate inhibition"}, {"measurement": "turnover number (kcat)", "setting": "[3]", "result": "~10.9", "unit": "s⁻¹"}, {"measurement": "turnover number with pHBA", "setting": "[4]", "result": "~0.21", "unit": "sec^−1"}, {"measurement": "turnover number (formation of the pHBA ester glucoside)", "setting": "[5]", "result": 0.73, "unit": "sec^−1"}]}, {"smiles": "COc1cc(/C=C/C(=O)O)cc(OC)c1O", "note": "[sinapic acid, Sinapic acid]", "values": [{"measurement": "turnover number with sinapic acid", "setting": "[6]", "result": "~0.72", "unit": "s⁻¹"}]}, {"smiles": "O=C(O[C@@H]1O[C@H](CO)[C@@H](O)[C@H](O)[C@H]1O)c1ccc(O)cc1", "note": "[pHBA glucose ester]", "values": [{"measurement": "susceptibility to acid and base hydrolysis", "setting": "[7]", "result": "far more susceptible to acid and base hydrolysis than the pHBA phenolic glucoside"}]}]}
